# Data as given in patent US12049583B2, “Compound, composition for anisotropic dye films including the compound, anisotropic dye film, and optical element” (Mitsubishi Chemical Corporation, priority 2020, dated 2024).
# Experiments:
# [1] = Solubility of the dye in toluene (concentration of toluene-saturated solution by HPLC); type: physicochemical
# Procedure: To 101 mg of toluene, 3 mg of the dye (II-1) was added, and the resulting mixture was stirred at 80° C. for 5 minutes. The mixture was left to stand for 1 hour at room temperature. The resulting liquid mixture was filtered with a syringe equipped with a syringe filter (produced by Membrane Solutions Limited, PTFE13045, diameter: 0.45 μm). Hereby, a toluene-saturated solution of the dye (II-1) was prepared. The above solution was diluted with 767 mg of tetrahydrofuran, and the concentration of the solution was determined using HPLC (L-2300 Series produced by Hitachi High-Technologies Corporation). A 0.1-mass % tetrahydrofuran solution of the dye (II-1) was prepared, and a calibration curve was prepared at an absorption wavelength of 254 nm. Table 1 lists the results of measurement of the concentration of the toluene-saturated solution using the above calibration curve.
# [2] = Solubility of the dye in cyclopentanone (concentration of cyclopentanone-saturated solution by HPLC); type: physicochemical
# Procedure: To 103 mg of cyclopentanone, 3 mg of the dye (IV-1) was added, and the resulting mixture was stirred at 80° C. for 5 minutes. The mixture was left to stand for 1 hour at room temperature. The resulting liquid mixture was filtered with a syringe equipped with a syringe filter (produced by Membrane Solutions Limited, PTFE13045, diameter: 0.45 μm). Hereby, a cyclopentanone-saturated solution of the dye (IV-1) was prepared. The above solution was diluted with 746 mg of tetrahydrofuran, and the concentration of the solution was determined using HPLC (L-2300 Series produced by Hitachi High-Technologies Corporation). A 0.1-mass % tetrahydrofuran solution of the dye (IV-1) was prepared, and a calibration curve was prepared at an absorption wavelength of 254 nm. The concentration of the cyclopentanone-saturated solution was measured using the above calibration curve.
# [3] = toluene-saturated solution, stirred at 80° C. 5 min, left 1 hour at room temperature, filtered, HPLC 254 nm
# [4] = cyclopentanone-saturated solution, stirred at 80° C. 5 min, left 1 hour at room temperature, filtered, HPLC 254 nm
"Solubility of the dye in toluene [1, 3] [mass %]","Solubility of the dye in cyclopentanone [2, 4] [mass %]",Compound,other results
,2.7,CCN(CC)c1ccc(/N=N/c2ccc(/N=N/c3sc(C)cc3C#N)cc2)cc1 [IV-3],
,1.8,CCN(CC)c1ccc(/N=N/c2ccc(/N=N/c3cc(C)ns3)cc2)cc1 [IV-4],

# More lines, now with the values behind:
Compound,"Solubility of the dye in toluene [1, 3] [mass %]","Solubility of the dye in cyclopentanone [2, 4] [mass %]",other results
CCN(CC)c1ccc(/N=N/c2ccc(/N=N/c3nc4sc(CCC(C)CC(C)(C)C)cc4s3)cc2)cc1 (centres unmarked) [II-1],0.5,,
CCN(CC)c1ccc(/N=N/c2ccc(/N=N/c3nc4sc(CCC(C)C)cc4s3)cc2)cc1 [II-2],0.7,,"Solubility of the dye in toluene ([1]; measured as for dye (II-1), detection absorption wavelength 254 nm): 0.7%"
CCN(CC)c1ccc(/N=N/c2nc3sc(/N=N/c4ccc(OCCC(C)CC(C)(C)C)cc4)cc3s2)cc1 (centres unmarked) [II-3],,0.3,"Solubility of the dye in cyclopentanone ([2]; measured as for dye (IV-1), detection absorption wavelength 254 nm): 0.3%"
CCCCSc1nnc(/N=N/c2ccc(/N=N/c3ccc(N(CC)CC)cc3)cc2)s1 [IV-2],,2.2,
